Tests used:
Assay in all cases: KINOMEscan competition binding
Settings in all cases: compound 10.0 µM; call rule not given here
ACVR1B (human) = ACVR1B (human) (UniProt P36896)
CAMK1G (human) = CAMK1G (human) (UniProt Q96NX5)
CLK3 (human) = CLK3 (human) (UniProt P49761)
CLK4 (human) = CLK4 (human) (UniProt Q9HAZ1)
DMPK (human) = DMPK (human) (UniProt Q09013)
EPHB2 (human) = EPHB2 (human) (UniProt P29323)
EPHB4 (human) = EPHB4 (human) (UniProt P54760)
ERBB2 (human) = ERBB2 (human) (UniProt P04626)
FGFR1 (human) = FGFR1 (human) (UniProt P11362)
FGFR4 (human) = FGFR4 (human) (UniProt P22455)
IGF1R (human) = IGF1R (human) (UniProt P08069)
LTK (human) = LTK (human) (UniProt P29376)
MAP3K4 (human) = MAP3K4 (human) (UniProt Q9Y6R4)
MAP3K5 (human) = MAP3K5 (human) (UniProt Q99683)
MAPK11 (human) = MAPK11 (human) (UniProt Q15759)
MAPK9 (human) = MAPK9 (human) (UniProt P45984)
MARK4 (human) = MARK4 (human) (UniProt Q96L34)
MUSK (human) = MUSK (human) (UniProt O15146)
NTRK1 (human) = NTRK1 (human) (UniProt P04629)
PAK1 (human) = PAK1 (human) (UniProt Q13153)
PAK2 (human) = PAK2 (human) (UniProt Q13177)
Chain of PAK2 (human) (Q13177 whole entry, looked up): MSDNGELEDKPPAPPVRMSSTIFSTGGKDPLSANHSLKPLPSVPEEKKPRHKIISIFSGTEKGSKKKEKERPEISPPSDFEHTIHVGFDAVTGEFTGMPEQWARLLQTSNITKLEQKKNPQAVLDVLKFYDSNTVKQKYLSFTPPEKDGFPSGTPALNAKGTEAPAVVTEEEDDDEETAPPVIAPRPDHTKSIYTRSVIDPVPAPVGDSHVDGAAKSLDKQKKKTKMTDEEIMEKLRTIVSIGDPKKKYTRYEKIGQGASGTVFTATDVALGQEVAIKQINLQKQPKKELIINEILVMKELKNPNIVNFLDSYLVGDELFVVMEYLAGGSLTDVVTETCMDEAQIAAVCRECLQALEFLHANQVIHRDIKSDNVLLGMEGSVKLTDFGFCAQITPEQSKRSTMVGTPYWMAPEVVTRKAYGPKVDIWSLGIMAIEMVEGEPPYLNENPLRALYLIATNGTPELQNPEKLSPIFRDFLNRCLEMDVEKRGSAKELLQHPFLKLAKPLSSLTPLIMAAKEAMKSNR

PAK3 (human) = PAK3 (human) (UniProt O75914)
PAK6 (human) = PAK6 (human) (UniProt Q9NQU5)
PHKG1 (human) = PHKG1 (human) (UniProt Q16816)
Chain of PHKG1 (human) (Q16816 whole entry, looked up): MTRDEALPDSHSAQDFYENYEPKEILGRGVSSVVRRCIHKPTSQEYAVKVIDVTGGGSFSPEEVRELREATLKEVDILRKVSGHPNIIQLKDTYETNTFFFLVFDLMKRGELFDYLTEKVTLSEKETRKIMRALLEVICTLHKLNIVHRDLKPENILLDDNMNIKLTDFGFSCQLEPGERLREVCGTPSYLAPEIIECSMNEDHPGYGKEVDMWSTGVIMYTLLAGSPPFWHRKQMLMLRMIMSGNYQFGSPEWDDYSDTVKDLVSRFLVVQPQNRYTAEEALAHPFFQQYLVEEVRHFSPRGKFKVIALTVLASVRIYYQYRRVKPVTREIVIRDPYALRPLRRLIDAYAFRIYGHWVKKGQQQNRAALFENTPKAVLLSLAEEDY

PHKG2 (human) = PHKG2 (human) (UniProt P15735)
PIM2 (human) = PIM2 (human) (UniProt Q9P1W9)
PLK3 (human) = PLK3 (human) (UniProt Q9H4B4)
PRKCH (human) = PRKCH (human) (UniProt P24723)
PRKG2 (human) = PRKG2 (human) (UniProt Q13237)
PTK2 (human) = PTK2 (human) (UniProt Q05397)
PTK2B (human) = PTK2B (human) (UniProt Q14289)
Chain of PTK2B (human) (Q14289 whole entry, looked up): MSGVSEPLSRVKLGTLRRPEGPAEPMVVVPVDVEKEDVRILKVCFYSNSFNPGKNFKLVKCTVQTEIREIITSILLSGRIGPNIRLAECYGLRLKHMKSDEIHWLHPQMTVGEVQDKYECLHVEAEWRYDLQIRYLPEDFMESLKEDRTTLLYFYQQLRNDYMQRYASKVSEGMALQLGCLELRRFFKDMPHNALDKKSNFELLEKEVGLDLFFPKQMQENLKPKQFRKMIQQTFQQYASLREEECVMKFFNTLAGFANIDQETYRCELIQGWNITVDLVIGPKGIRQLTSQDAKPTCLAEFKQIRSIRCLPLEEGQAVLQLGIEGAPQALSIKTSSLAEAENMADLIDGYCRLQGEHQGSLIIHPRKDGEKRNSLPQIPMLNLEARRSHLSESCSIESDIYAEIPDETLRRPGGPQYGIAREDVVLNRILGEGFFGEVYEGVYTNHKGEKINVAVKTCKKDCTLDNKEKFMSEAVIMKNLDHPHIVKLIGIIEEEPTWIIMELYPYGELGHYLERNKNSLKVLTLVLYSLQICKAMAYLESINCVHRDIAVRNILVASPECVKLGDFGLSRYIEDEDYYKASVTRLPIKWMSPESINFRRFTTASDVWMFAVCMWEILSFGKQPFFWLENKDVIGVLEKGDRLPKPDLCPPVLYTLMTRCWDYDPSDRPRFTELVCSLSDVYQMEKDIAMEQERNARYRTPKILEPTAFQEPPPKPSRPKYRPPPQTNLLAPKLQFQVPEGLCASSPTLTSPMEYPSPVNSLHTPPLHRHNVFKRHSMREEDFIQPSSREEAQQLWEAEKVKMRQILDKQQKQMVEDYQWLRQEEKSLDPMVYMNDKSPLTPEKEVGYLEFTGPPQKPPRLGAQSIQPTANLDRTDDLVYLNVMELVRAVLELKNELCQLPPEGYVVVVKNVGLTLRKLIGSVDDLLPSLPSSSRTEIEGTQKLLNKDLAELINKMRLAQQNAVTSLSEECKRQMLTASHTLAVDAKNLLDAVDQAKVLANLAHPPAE

RPS6KA1 KD1 (human) = RPS6KA1 KD1 (human) (UniProt Q15418)
Chain of RPS6KA1 KD1 (human) (Q15418 whole entry, looked up): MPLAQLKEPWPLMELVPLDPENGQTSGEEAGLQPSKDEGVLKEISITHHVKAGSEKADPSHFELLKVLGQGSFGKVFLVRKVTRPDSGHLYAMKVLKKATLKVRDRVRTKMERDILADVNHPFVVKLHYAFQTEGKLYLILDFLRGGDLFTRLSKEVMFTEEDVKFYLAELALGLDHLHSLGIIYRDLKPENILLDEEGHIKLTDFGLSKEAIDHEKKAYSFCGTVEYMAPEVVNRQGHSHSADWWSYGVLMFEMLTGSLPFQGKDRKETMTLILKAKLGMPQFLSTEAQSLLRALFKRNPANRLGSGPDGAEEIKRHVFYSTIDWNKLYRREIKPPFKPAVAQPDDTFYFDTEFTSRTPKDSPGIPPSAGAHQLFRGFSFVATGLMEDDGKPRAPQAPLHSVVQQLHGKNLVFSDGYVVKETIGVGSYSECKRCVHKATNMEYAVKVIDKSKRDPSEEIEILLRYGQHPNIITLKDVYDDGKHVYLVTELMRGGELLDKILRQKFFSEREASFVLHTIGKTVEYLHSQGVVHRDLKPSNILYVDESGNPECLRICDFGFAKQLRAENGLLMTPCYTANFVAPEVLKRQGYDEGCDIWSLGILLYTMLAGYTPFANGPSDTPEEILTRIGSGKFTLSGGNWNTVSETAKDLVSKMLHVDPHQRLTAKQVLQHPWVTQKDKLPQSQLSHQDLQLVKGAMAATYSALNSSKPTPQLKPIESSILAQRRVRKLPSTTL

RPS6KA3 KD1 (human) = RPS6KA3 KD1 (human) (UniProt P51812)
RPS6KA5 KD1 (human) = RPS6KA5 KD1 (human) (UniProt O75582)
STK36 (human) = STK36 (human) (UniProt Q9NRP7)
Chain of STK36 (human) (Q9NRP7 whole entry, looked up): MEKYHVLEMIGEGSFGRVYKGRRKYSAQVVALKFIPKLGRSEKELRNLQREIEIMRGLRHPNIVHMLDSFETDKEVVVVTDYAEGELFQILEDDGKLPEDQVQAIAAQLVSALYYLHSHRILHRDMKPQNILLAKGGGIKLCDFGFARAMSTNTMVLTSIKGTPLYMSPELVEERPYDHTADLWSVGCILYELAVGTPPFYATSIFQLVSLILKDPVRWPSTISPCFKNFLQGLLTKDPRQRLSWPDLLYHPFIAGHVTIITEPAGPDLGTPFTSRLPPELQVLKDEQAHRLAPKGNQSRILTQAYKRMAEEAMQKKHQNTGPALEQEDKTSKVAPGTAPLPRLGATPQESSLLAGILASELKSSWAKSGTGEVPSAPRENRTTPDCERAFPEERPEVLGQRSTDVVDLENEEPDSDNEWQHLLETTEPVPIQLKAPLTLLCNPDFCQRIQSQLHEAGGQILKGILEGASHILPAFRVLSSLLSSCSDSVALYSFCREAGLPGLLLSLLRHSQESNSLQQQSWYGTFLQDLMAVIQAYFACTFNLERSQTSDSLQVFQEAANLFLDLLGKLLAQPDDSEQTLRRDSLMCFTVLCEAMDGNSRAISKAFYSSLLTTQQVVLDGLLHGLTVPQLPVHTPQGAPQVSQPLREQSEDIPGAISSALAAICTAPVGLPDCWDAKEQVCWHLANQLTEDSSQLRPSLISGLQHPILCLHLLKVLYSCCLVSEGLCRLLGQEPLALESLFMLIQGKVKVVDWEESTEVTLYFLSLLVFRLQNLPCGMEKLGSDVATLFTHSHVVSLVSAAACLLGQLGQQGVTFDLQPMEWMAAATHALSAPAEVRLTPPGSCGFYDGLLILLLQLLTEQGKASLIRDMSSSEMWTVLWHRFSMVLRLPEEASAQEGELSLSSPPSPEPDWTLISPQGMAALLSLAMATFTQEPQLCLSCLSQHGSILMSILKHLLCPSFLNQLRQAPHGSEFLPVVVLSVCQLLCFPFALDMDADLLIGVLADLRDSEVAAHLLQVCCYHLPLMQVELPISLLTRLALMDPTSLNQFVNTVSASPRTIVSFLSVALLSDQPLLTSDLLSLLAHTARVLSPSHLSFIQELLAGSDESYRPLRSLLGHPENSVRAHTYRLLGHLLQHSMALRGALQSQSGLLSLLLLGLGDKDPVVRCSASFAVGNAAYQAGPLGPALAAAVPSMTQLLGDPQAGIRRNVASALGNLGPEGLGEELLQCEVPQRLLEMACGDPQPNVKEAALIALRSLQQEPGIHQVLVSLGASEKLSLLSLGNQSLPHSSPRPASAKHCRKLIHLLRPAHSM

TGFBR1 (human) = TGFBR1 (human) (UniProt P36897)
Chain of TGFBR1 (human) (P36897 whole entry, looked up): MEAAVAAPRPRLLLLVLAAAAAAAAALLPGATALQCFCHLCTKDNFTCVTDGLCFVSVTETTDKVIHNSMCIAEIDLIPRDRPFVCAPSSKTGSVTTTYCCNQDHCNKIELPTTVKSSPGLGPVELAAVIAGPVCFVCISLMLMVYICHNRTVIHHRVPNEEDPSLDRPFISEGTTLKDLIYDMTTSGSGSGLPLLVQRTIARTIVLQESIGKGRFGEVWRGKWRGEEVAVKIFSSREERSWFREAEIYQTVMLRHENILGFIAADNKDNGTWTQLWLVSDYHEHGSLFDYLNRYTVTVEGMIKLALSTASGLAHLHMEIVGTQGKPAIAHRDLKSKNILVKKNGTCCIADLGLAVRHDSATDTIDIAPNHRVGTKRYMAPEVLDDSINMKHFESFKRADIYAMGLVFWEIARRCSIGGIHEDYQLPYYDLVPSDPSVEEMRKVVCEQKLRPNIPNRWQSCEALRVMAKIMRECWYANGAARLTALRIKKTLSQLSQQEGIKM

TLK2 (human) = TLK2 (human) (UniProt Q86UE8)
TXK (human) = TXK (human) (UniProt P42681)
ZAP70 (human) = ZAP70 (human) (UniProt P43403)
AKT1 (human) = AKT1 (human) (UniProt P31749)

Chain of ACVR1B (human) (P36896 whole entry, looked up): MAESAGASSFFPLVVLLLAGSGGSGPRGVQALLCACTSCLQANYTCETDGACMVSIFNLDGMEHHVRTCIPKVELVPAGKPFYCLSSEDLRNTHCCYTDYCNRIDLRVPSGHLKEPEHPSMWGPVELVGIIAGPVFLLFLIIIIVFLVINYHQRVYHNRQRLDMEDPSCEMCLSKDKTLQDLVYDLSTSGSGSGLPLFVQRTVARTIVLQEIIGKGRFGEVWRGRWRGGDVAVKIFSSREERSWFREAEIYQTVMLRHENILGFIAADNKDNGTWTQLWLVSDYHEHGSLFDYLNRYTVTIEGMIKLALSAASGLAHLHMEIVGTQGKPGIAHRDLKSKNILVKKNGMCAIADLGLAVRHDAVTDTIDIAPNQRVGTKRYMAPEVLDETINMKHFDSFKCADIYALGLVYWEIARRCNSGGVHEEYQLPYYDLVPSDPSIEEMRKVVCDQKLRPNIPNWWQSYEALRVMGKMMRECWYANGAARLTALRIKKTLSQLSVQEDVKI

kinase still bound, per cent of control (ACVR1B (human))	kinase still bound, per cent of control (CAMK1G (human))	kinase still bound, per cent of control (CLK3 (human))	kinase still bound, per cent of control (CLK4 (human))	kinase still bound, per cent of control (DMPK (human))	kinase still bound, per cent of control (EPHB2 (human))	kinase still bound, per cent of control (EPHB4 (human))	kinase still bound, per cent of control (ERBB2 (human))	kinase still bound, per cent of control (FGFR1 (human))	kinase still bound, per cent of control (FGFR4 (human))	kinase still bound, per cent of control (IGF1R (human))	kinase still bound, per cent of control (LTK (human))	kinase still bound, per cent of control (MAP3K4 (human))	kinase still bound, per cent of control (MAP3K5 (human))	kinase still bound, per cent of control (MAPK11 (human))	kinase still bound, per cent of control (MAPK9 (human))	kinase still bound, per cent of control (MARK4 (human))	kinase still bound, per cent of control (MUSK (human))	kinase still bound, per cent of control (NTRK1 (human))	kinase still bound, per cent of control (PAK1 (human))	SMILES	other results
no effect (inactive)	no effect (inactive)	no effect (inactive)	no effect (inactive)	no effect (inactive)	no effect (inactive)	no effect (inactive)	no effect (inactive)	no effect (inactive)	no effect (inactive)	no effect (inactive)	no effect (inactive)	no effect (inactive)	no effect (inactive)	no effect (inactive)	no effect (inactive)	no effect (inactive)	no effect (inactive)	no effect (inactive)	no effect (inactive)	NC(=O)c1ccc(-c2cc(C(N)=O)c(N)c(-c3ccc(S(N)(=O)=O)cc3)c2)cc1	kinase still bound, per cent of control (PAK2 (human)): no effect (inactive); kinase still bound, per cent of control (PAK3 (human)): no effect (inactive); kinase still bound, per cent of control (PAK6 (human)): no effect (inactive); kinase still bound, per cent of control (PHKG1 (human)): no effect (inactive); kinase still bound, per cent of control (PHKG2 (human)): no effect (inactive); kinase still bound, per cent of control (PIM2 (human)): no effect (inactive); kinase still bound, per cent of control (PLK3 (human)): no effect (inactive); kinase still bound, per cent of control (PRKCH (human)): no effect (inactive); kinase still bound, per cent of control (PRKG2 (human)): no effect (inactive); kinase still bound, per cent of control (PTK2 (human)): no effect (inactive); kinase still bound, per cent of control (PTK2B (human)): no effect (inactive); kinase still bound, per cent of control (RPS6KA1 KD1 (human)): no effect (inactive); kinase still bound, per cent of control (RPS6KA3 KD1 (human)): no effect (inactive); kinase still bound, per cent of control (RPS6KA5 KD1 (human)): no effect (inactive); kinase still bound, per cent of control (STK36 (human)): no effect (inactive); kinase still bound, per cent of control (TGFBR1 (human)): no effect (inactive); kinase still bound, per cent of control (TLK2 (human)): no effect (inactive); kinase still bound, per cent of control (TXK (human)): no effect (inactive); kinase still bound, per cent of control (ZAP70 (human)): no effect (inactive)
2%	no effect (inactive)	2.3%	0%	no effect (inactive)	0.15%	0.7%	no effect (inactive)	0%	0%	0%	0%	28.3%	1.4%	no effect (inactive)	0.1%	0%	0%	0%	4.9%	CCS(=O)(=O)Nc1ccc2c(c1)[C@H](/C(=N/c1ccc(CN3CCCCC3)cc1)c1ccccc1)C(=O)N2	kinase still bound, per cent of control (AKT1 (human)): no effect (inactive); kinase still bound, per cent of control (PAK2 (human)): no effect (inactive); kinase still bound, per cent of control (PAK3 (human)): 0%; kinase still bound, per cent of control (PAK6 (human)): 2.6%; kinase still bound, per cent of control (PHKG1 (human)): 0.1%; kinase still bound, per cent of control (PHKG2 (human)): 0%; kinase still bound, per cent of control (PIM2 (human)): no effect (inactive); kinase still bound, per cent of control (PLK3 (human)): no effect (inactive); kinase still bound, per cent of control (PRKCH (human)): 19.2%; kinase still bound, per cent of control (PRKG2 (human)): 0%; kinase still bound, per cent of control (PTK2 (human)): 0%; kinase still bound, per cent of control (PTK2B (human)): 0%; kinase still bound, per cent of control (RPS6KA1 KD1 (human)): 0%; kinase still bound, per cent of control (RPS6KA3 KD1 (human)): 0%; kinase still bound, per cent of control (RPS6KA5 KD1 (human)): 0%; kinase still bound, per cent of control (STK36 (human)): no effect (inactive); kinase still bound, per cent of control (TGFBR1 (human)): 0%; kinase still bound, per cent of control (TLK2 (human)): 1.5%; kinase still bound, per cent of control (TXK (human)): 0%; kinase still bound, per cent of control (ZAP70 (human)): no effect (inactive)
no effect (inactive)	no effect (inactive)	no effect (inactive)	no effect (inactive)	no effect (inactive)	no effect (inactive)	no effect (inactive)	no effect (inactive)	no effect (inactive)	no effect (inactive)	no effect (inactive)	no effect (inactive)	no effect (inactive)	no effect (inactive)	0%	no effect (inactive)	no effect (inactive)	no effect (inactive)	no effect (inactive)	no effect (inactive)	Cc1ccc(NC(=O)c2cccc(N3CCCCC3)c2)cc1-c1ccc(C(=O)NCC2CC2)cc1	kinase still bound, per cent of control (AKT1 (human)): no effect (inactive); kinase still bound, per cent of control (PAK2 (human)): no effect (inactive); kinase still bound, per cent of control (PAK3 (human)): no effect (inactive); kinase still bound, per cent of control (PAK6 (human)): no effect (inactive); kinase still bound, per cent of control (PHKG1 (human)): no effect (inactive); kinase still bound, per cent of control (PHKG2 (human)): no effect (inactive); kinase still bound, per cent of control (PIM2 (human)): no effect (inactive); kinase still bound, per cent of control (PLK3 (human)): no effect (inactive); kinase still bound, per cent of control (PRKCH (human)): no effect (inactive); kinase still bound, per cent of control (PRKG2 (human)): no effect (inactive); kinase still bound, per cent of control (PTK2 (human)): no effect (inactive); kinase still bound, per cent of control (PTK2B (human)): no effect (inactive); kinase still bound, per cent of control (RPS6KA1 KD1 (human)): no effect (inactive); kinase still bound, per cent of control (RPS6KA3 KD1 (human)): no effect (inactive); kinase still bound, per cent of control (RPS6KA5 KD1 (human)): no effect (inactive); kinase still bound, per cent of control (STK36 (human)): no effect (inactive); kinase still bound, per cent of control (TGFBR1 (human)): no effect (inactive); kinase still bound, per cent of control (TLK2 (human)): no effect (inactive); kinase still bound, per cent of control (TXK (human)): no effect (inactive); kinase still bound, per cent of control (ZAP70 (human)): no effect (inactive)

— the kinase profiling compilation of Christmann-Franck et al. (2016)
